Results as given in article PMC2857669 (Biochemistry, 2009).
≈ marks a conversion by molar mass, not a printed value. Where two headings read alike, the source gives them in different places.

Tests used:
ferrous heme-hHO-1 [1] = target: T1, ferrous heme-hHO-1 (Homo sapiens, UniProt P09601); conditions: cited from earlier work
T1 sequence (P09601 1-265 limits assumed): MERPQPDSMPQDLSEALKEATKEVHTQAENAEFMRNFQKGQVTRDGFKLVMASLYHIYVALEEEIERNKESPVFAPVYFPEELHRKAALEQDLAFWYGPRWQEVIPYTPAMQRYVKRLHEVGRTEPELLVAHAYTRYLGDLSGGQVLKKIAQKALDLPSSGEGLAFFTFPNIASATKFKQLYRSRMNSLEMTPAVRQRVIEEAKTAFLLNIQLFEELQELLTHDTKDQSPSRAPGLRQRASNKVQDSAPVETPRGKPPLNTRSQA

verdoheme-HO-1 complex = conditions: in the presence of reductant; cited from earlier work
HO [2] = conditions: cited from earlier work
hHO-1 = target: T2, hHO-1 (Homo sapiens, UniProt P09601); experiment: biochemical
T2 sequence (P09601 1-265 limits assumed): T1 sequence (P09601 1-265 limits assumed)

HO [3] = conditions: cited from earlier work; remark: listed apart in the source
CaHmx1 = CaHmx1 (Candida albicans, UniProt Q5AB97); assay type: binding; conditions: read-out: estimate of the KD; ferric CaHmx1; no full saturation up to 7 mM
ferrous heme-hHO-1 [4] = target: T1, ferrous heme-hHO-1; experiment: biochemical; assay type: binding
hHO-2 = target: T3, hHO-2 (Homo sapiens, UniProt P30519); experiment: biochemical
T3 sequence (P30519 2-295 limits assumed): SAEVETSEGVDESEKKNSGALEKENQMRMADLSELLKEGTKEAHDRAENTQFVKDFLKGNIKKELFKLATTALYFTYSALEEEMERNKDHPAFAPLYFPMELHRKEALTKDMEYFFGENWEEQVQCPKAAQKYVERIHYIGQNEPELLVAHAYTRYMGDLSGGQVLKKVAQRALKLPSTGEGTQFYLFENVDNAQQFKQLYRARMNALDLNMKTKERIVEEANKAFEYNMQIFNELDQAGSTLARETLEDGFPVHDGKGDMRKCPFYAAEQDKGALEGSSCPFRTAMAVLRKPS

ferric verdoheme-hHO-1 = target: T4, ferric verdoheme-hHO-1 (Homo sapiens, UniProt P09601); experiment: biochemical; assay type: binding
T4 sequence (P09601 1-265 limits assumed): T1 sequence (P09601 1-265 limits assumed)

heme-hHO-1 [5] = target: T5, heme-hHO-1 (Homo sapiens, UniProt P09601); assay type: binding; conditions: ferric heme-hHO-1
T5 sequence (P09601 1-265 limits assumed): T1 sequence (P09601 1-265 limits assumed)

heme-hHO-1 [6] = target: T5, heme-hHO-1; experiment: biochemical
[7] = Solubility in aqueous solutions; assay type: physicochemical

[C-]#[O+] [CO, carbon monoxide]
Kd (ferrous heme-hHO-1 [1]): 0.01 µM | association rate constant (ferrous heme-hHO-1 [1]): 900000 M⁻¹ s⁻¹ | dissociation rate (ferrous heme-hHO-1 [1]): 0.009 s⁻¹

O=O [O2]
Kd (ferrous heme-hHO-1 [1]): 0.04 µM | association rate constant (ferrous heme-hHO-1 [1]): 6.9e+06 M⁻¹ s⁻¹ | dissociation rate (ferrous heme-hHO-1 [1]): 0.25 s⁻¹ | estimated rate constant of reaction with O2 (verdoheme-HO-1 complex): 250 M⁻¹ s⁻¹

C=Cc1c2[n-]c(c1C)/C=c1\[n-]/c(c(C)c1C=C)=C\c1[n-]c(c(CCC(=O)O)c1C)C=c1[n-]/c(c(C)c1CCC(=O)O)=C\2.[Sn+4] [Sn-heme]
Ki (HO [2]): 0.011 µM

iron protoporphyrin IX [heme]
Km (hHO-1; read-out: Km for heme, global fit to uncompetitive inhibition): 0.005 ± 0.001 mM | Kd (HO [3]): 0.8 ± 0.2 µM

[C-]#[N+]C(C)C [isopropyl isocyanide]
Kd (CaHmx1): 3800 µM | association rate constant (kon) (ferrous heme-hHO-1 [4]; ferrous heme-hHO-1, 20 °C, anaerobic): 1.3e+06 M⁻¹ s⁻¹ | IC50 (hHO-1): 0.72 ± 0.08 µM | IC50 (hHO-2): 1.17 ± 0.06 µM | Kd (ferric verdoheme-hHO-1; ferric verdoheme-hHO-1 generated with one equivalent H2O2): 440 ± 75 µM

[C-]#[N+]CCCC [n-butyl isocyanide]
fold higher affinity than isopropyl isocyanide (heme-hHO-1 [5]): 9 fold | Kd (ferrous heme-hHO-1 [4]): 0.12 µM | koff (ferrous heme-hHO-1 [4]; read-out: dissociation rate (koff)): 0.52 s⁻¹ | IC50 (hHO-1): 0.25 ± 0.01 µM | IC50 (hHO-2): 0.34 ± 0.02 µM | IC50 (heme-hHO-1 [6]): ~45 µM | Kd (ferric verdoheme-hHO-1): 17 ± 3 µM | fold higher affinity than ferric heme-hHO-1 (ferric verdoheme-hHO-1; ferric verdoheme-hHO-1 versus ferric heme-hHO-1): 2 fold | solubility [7]: 6 mM (≈ 499 µg/mL)
